Assay results as given in patent US8729097B2, “Quinoline compounds as inhibitors of angiogenesis, human methionine aminopeptidase, and SIRT1, and methods of treating disorders” (The Johns Hopkins University, priority 2008, dated 2014).
Where “and” joins values, the source holds several entries; their conditions need not be identical. Equal values may be shown once. Read-outs that look alike come from different tables or passages of the source.

What was measured:
[1] = test system: p53 and Rb pathways in HUVECs; assay: Western blot of p53, p21 and Rb in HUVEC; format: cell-based, human
Description: (§1) Cells were lysed by adding 1 volume of 2× Laemmli buffer and were then boiled for 5 min. The samples were separated by SDS-PAGE and transferred to nitrocellulose membrane (Bio-Rad). Proteins were detected using primary antibodies for p53 (Santa Cruz), met-14-3-3γ (Novus), p21 (Santa Cruz), Rb (Santa Cruz), MetAP2 (Hu, X. et al (2006) Proc. Natl. Acad. Sci. U.S.A. 103, 18148-18153), SirT1 (Santa Cruz), acetyl-p53-K382 (Abeam), acetyl-tubulin (Sigma), histone-H3 (Santa Cruz), acetyl-H3 (Santa Cruz) and α-tubulin (TU-02, Santa Cruz) followed by the incubation with horseradish peroxidase (HRP)-conjugated anti-mouse or anti-rabbit antibodies (Santa Cruz) and enhanced chemiluminescence (ECL, Amersham).

[2] = test system: N-terminal methionine processing of 14-3-3γ by hMetAP2; assay: N-terminal methionine processing of 14-3-3γ in HUVEC (Western blot); format: cell-based, human
Description: 14-3-3γ is known as a substrate of eukaryotic MetAPs and the inhibition of either isotype of MetAPs was reported to increase the N-terminal methionyl form of the protein.
Cells were lysed by adding 1 volume of 2× Laemmli buffer and were then boiled for 5 min. The samples were separated by SDS-PAGE and transferred to nitrocellulose membrane (Bio-Rad).

HUVEC [3] = assay: Senescence associated-β-galactosidase (SA-β-gal) staining in HUVEC; format: cell-based, human
Description: Cells in 6-well plates were washed with PBS and fixed with 3% paraformaldehyde. After washing with PBS, the cells were incubated for 24 h at 37° C. (without CO2, protected from light) in freshly prepared SA-β-gal staining solution containing 1 mg/ml 5-bromo-4-chloro-3-indolyl β-D-galactopyranoside (X-gal), 5 mM potassium ferrocyanide, 5 mM potassium ferricyanide, 150 mM NaCl, 2 mM MgCl2 and 40 mM citric acid, titrated with NaH2PO4 to pH 6.0. SA-β-gal solution was then removed and the cells were washed with PBS. The stained cells were observed under a microscope.

[4] = test system: acetylation of p53 (K382), α-tubulin and histone-H3; assay: Acetylation status of sirtuin substrates in HUVEC (Western blot); format: cell-based, human
Description: as §1

p53 and p21 mRNA = assay: RT-PCR of p53 and p21 mRNA in HUVEC; format: cell-based, human; conditions: time-dependent
Description: Total RNA from cells was isolated by Trizol reagent (Invitrogen) according to manufacturer's instruction. The RNA was then reverse transcribed using Superscript III (Invitrogen) and the standard PCR procedure was conducted using specific primer sets for p53 and p21 as following; 5′-[…]-3′ (forward) and 5′-[…]-3′ (reverse) for p53, 5′-[…]-3′ (forward) and 5′-[…]-3′ (reverse) for p21. RT-PCR analysis of GAPDH was used as an internal control for normalization.

HUVEC [5] = assay: HUVEC proliferation, [3H]-thymidine incorporation assay; format: cell-based, human; conditions: Homo sapiens, HUVEC
Description: HCC1954 cells were grown in RPMI1640 containing 10% FBS. HUVEC were grown using the EGM-2 bullet kit (Cambrex) as per manufacturer's instructions. The cells were maintained in a humidified incubator adjusted to 5% CO2. For drug screening, 10 mM stock solutions of Johns Hopkins Drug Library were arrayed in 96-well plates and screened at a final concentration of 10 μM. The cell growth was determined using a [^3H]-thymidine incorporation assay. Cells (typically 5,000 cells/well) were seeded in 96-well plates containing 0.2 ml of growth media and allowed to adhere for 24 h. The cells were then treated with drugs for 24 h. Cells were pulsed with 1 μCi [^3H]-thymidine (MP Biomedicals, 6.7 Ci mmol^−1) for 8 h and harvested, upon trypsin treatment, onto glass fiber filters (Wallac, Turku, Finland), from which ^3H counts were determined using a Perkin Elmer MicroBeta plate reader.

SirT2 = SirT2 (Homo sapiens, UniProt Q8IXJ6); assay: biochemical; conditions: SirT2 IC50, recombinant human sirtuin, fluorogenic substrate
SirT2, sequence (Q8IXJ6 whole entry): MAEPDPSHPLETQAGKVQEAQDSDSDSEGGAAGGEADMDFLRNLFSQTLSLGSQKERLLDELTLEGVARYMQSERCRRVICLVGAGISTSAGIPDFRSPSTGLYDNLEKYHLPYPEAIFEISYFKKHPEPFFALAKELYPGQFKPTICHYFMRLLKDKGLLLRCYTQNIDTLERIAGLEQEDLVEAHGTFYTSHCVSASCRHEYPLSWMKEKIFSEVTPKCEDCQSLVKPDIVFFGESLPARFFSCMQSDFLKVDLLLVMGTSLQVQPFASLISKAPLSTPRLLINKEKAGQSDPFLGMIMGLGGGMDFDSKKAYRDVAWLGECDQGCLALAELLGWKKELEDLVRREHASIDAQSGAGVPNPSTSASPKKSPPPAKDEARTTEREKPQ
Description: The sirtuin fluorometric assay kits were obtained from Biomol. The assay was conducted according to the manufacturer's instruction. One unit of SirT1 was used per reaction. For SirT2 and SirT3, 2 units were used for the assay.

Q: Which results are given for `O=[N+]([O-])c1ccc(O)c2ncccc12` [Entry 1c, nitroxoline]?
A: p53 protein level [1]: upregulation; Rb hyperphosphorylation ([1]; 8% SDS-PAGE): inhibited its hyperphosphorylation; total amount of Rb protein ([1]; 12% SDS-PAGE): increased the total amount of Rb protein; p21 protein level on longer incubation ([1]; longer incubation): upregulated; p53 protein level on prolonged exposure ([1]; up to 72 h): sustained increase in p53 protein level; expression of p21 ([1]; within 24 h of treatment): no effect; N-terminal methioninylated 14-3-3γ level ([2]; 24 h): dose-dependently increased; inhibition at 5 µM ([2]; Homo sapiens, read-out: inhibition of the processing of 14-3-3γ compared with hMetAP2 siRNA): ~80%; premature senescence in HUVEC (HUVEC [3]; 72 h, valproic acid 0.1 mM, TNP-470 20 nM): induced premature senescence; reversibility of senescence (HUVEC [3]; 72 h treatment, then fresh media for an additional 48 h): remained senescent; acetylation of p53-K382 ([4]; HUVEC treated for 20 h): increased the acetylation of p53-K382; acetylation status of tubulin or histone-H3 ([4]; HUVEC, 6 h or 20 h): did not change the acetylation status; acetylation of tubulin and histone-H3 in the presence of TSA ([4]; HUVEC, with TSA (200 nM), 24 h, nitroxoline 20 μM): significantly increased the acetylation of both tubulin and histone-H3; p21 mRNA level (p53 and p21 mRNA): increased; p53 mRNA level (p53 and p21 mRNA): decreased; IC50 (HUVEC [5]; read-out: Selectivity HUVEC IC50): 1.98 µM; IC50 (HUVEC [5]; Table 4, read-out: HUVEC IC50): 1.98 µM; IC50 (SirT2): 43 µM and 35 µM
